Values of other authors as cited in patent US20180235982A1, “Treatment for Spirochete borne illness” (priority 2017, published 2018).

Settings: no species, matrix or method given

half-life: 12 to 14 h
SMILES: CN(C)c1ccc(O)c2c1C[C@H]1C[C@H]3[C@H](N(C)C)C(O)=C(C(N)=O)C(=O)[C@@]3(O)C(O)=C1C2=O [Minocycline]
